The values that follow come from patent US20060063783A1, “Sulphonylpiperidine derivatives containing an alkenyl or alkynyl moiety for use as matrix metalloproteinase inhibitors” (ASTRAZENECA AB, priority 2002, published 2006).

The test deals with T1, proTNFα convertase enzyme (TACE) (Homo sapiens, UniProt P78536).
T1 construct: a partially purified, isolated enzyme assay, the enzyme being obtained from the membranes of THP-1; endogenous in cells; host or cells: THP-1 cell membranes (partially purified, per Mohler et al. 1994 Nature 370:218-220)
In words: Partially purified, isolated enzyme assay for proTNFα convertase (TACE), fluorescent peptide substrate. It is filed as biochemical. The note with it: 10 μM of compound; enzyme from membranes of THP-1. As to the method: Recombinant human proMMP13 may be expressed and purified as described by Knauper et al. [V. Knauper et al., (1996) The Biochemical Journal 271:1544-1550 (1996)]. […] Activity is determined by measuring the fluorescence at λex 328 nm and λem 393 nm. Percent inhibition is calculated as follows: % Inhibition is equal to the [Fluorescenceplus inhibitor−Fluorescencebackgrouud] divided by the [Fluorescenceminus inhibitor−Fluorescencebackground].
The ability of the compounds to inhibit proTNFα convertase enzyme (TACE) may be assessed using a partially purified, isolated enzyme assay, the enzyme being obtained from the membranes of THP-1 as described by K. M. Mohler et al., (1994) Nature 370:218-220. The purified enzyme activity and inhibition thereof is determined by incubating the partially purified enzyme in the presence or absence of test compounds using the substrate 4′,5′-Dimethoxy-fluoresceinyl Ser.Pro.Leu.Ala.Gln.Ala.Val.Arg.Ser.Ser.Ser.Arg.Cys(4-(3-succinimid-1-yl)-fluorescein)-NH2 in assay buffer (50 mM Tris HCl, pH 7.4 containing 0.1% (w/v) Triton X-100 and 2 mM CaCl2), at 26° C. for 4 hours. The amount of inhibition is determined as for MMP13 except λex 485 nm and λem 538 nm were used. […]

T1 sequence (P78536 215-824): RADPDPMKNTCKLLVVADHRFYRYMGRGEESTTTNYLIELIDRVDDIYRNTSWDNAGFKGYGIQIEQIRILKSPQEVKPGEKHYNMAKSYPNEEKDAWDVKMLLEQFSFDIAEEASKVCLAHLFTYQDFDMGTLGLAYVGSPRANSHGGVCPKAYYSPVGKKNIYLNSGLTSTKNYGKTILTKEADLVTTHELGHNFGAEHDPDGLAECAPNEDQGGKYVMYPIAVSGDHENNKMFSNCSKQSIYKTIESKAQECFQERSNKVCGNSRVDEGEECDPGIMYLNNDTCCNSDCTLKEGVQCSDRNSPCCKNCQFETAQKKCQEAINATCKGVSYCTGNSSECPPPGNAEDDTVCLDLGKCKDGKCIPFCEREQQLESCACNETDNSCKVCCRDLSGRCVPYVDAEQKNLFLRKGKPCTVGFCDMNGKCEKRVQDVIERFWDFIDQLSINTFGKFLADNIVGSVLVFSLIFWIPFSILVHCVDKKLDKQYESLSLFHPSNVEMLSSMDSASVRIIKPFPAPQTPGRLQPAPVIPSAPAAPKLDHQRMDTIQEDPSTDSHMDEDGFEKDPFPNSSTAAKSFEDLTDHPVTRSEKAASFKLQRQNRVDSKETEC

By inhibition is commonly meant the percentage by which the read-out fell short of the control. Turning to `CC#CCOC1CCN(S(=O)(=O)CC(CCCc2ncccn2)N(O)C=O)CC1` (racemic) [compound 1, (R/S)-1-({[4-(But-2-ynyloxy)piperidin-1-yl]sulphonyl}methyl)-4-pyrimidin-2-ylbutyl(hydroxy)formamide], 10 µM produced 72% inhibition.
